Data reported in patent US11472838B2, “Inhibitors of blood coagulation factor XIII” (Zedira GmbH, priority 2018, dated 2022).
Read-outs that look alike come from different tables or passages of the source. *1 amine or outer side, *2 acyl side, *3 side chain or, on linkers, in order; H or OH if unused. Where a SMILES comes first, the peptide text is derived from it. [ ]: non-standard residue; d: D form. The star is where a group is joined. ξ: configuration not given here. Benzoyl(3-COOH,5-NO2) = O=C(O)c1cc(C(=O)*)cc([N+](=O)[O-])c1; Pro(3R,4S-CMe2) = CC1(C)[C@@H]2[C@@H](C(=O)O)NC[C@@H]21; Benzoyl(2-COOH-4,5-Cl2) = O=C(O)c1cc(Cl)c(Cl)cc1C(=O)*; Nle(5E-ene,6-CO2Et) = CCOC(=O)/C=C/CC[C@H](N)C(=O)O; X1 = COC(=O)/C=C/CC[C@H](N[*:1])C(=O)[*:2]; Pro(4-methylene) = C=C1CN[C@H](C(=O)O)C1; Morpholine(3S-CO) = O=C(O)[C@@H]1COCCN1; Pro(4-oxo) = O=C1CN[C@H](C(=O)O)C1; Ala(cPr) = N[C@@H](CC1CC1)C(=O)O; Ile(3ξ) = CCC(C)[C@H](N)C(=O)O; Thr(3ξ) = CC(O)[C@H](N)C(=O)O; Chg = N[C@H](C(=O)O)C1CCCCC1; Tle = CC(C)(C)[C@H](N)C(=O)O; αMeP = C[C@@]1(C(=O)O)CCCN1; X6 = Cc1cccc(C)c1OCC(C)N*; Nle = CCCC[C@H](N)C(=O)O; NHIsopentyl = CC(C)CCN*; ξV = CC(C)C(N)C(=O)O; Alloc = C=CCOC(=O)*

Key:
[1] = in vitro; conditions: for half-life: plasma
Procedure: Further, the stability of compounds in plasma was determined as prerequisite for drug-likeness. Briefly, after spiking the chemical entities, the plasma was incubated at 37° C. At certain time points (e.g. at 15 and 120 minutes), 3 vol. cold MeOH were added to extract the compounds. After centrifugation, the supernatant was analyzed by HPLC. The half life was calculated based on the respective calibration curve.

[2] = molecular target: FXIII (Homo sapiens (Human), UniProt P00488); test: Inhibitory activity against FXIII (isopeptidase assay), Tables 3 and 4; format: biochemical;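 also: FXIIIa activity read with a peptide substrate derived from the α2-antiplasmin N-terminal dodecapeptide, FXIII activated beforehand at room temperature, inhibitor-free wells with DMSO buffer as control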
Sequence of FXIII (P00488 39-732): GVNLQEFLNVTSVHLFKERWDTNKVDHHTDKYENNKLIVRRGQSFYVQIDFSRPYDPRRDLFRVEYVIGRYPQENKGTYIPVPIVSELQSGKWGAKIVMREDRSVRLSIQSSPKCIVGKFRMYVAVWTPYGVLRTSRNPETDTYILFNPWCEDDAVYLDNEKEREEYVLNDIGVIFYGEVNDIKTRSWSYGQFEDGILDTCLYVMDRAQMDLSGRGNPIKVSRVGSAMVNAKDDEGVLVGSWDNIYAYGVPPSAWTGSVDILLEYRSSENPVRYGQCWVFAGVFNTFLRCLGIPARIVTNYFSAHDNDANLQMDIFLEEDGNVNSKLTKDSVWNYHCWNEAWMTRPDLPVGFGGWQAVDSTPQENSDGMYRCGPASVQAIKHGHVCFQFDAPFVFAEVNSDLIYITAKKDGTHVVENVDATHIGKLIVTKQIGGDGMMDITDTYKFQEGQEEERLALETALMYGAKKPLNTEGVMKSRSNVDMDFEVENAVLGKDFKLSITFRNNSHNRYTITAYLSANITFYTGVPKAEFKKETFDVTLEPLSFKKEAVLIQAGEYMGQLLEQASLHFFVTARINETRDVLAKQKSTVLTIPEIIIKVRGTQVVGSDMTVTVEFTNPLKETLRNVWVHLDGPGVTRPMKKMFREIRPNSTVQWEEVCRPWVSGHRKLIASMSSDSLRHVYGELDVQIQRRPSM
Procedure: (§1) FXIIIa activity has been determined using substrate A101 (Zedira GmbH, Darmstadt, Germany), which is based on the N-terminal dodecapeptide of α2-antipiasmin.
(§2) The mixture was incubated for 20 min at room temperature to activate FXIII. […] For measurements without inhibitor, 15 μL of assay buffer/2% (v/v) DMSO were added. All measurements were performed in triplicate. The respective IC50 values were calculated by non-linear regression using the MARS software package (BMG Labtech).

[3] = molecular target: TG2 (Homo sapiens (Human), UniProt P21980); test: Inhibitory activity against TG2 (isopeptidase assay), Tables 3 and 4; format: biochemical; conditions: for Selectivity: TG2 versus FXIII
Sequence of TG2 (P21980 whole entry): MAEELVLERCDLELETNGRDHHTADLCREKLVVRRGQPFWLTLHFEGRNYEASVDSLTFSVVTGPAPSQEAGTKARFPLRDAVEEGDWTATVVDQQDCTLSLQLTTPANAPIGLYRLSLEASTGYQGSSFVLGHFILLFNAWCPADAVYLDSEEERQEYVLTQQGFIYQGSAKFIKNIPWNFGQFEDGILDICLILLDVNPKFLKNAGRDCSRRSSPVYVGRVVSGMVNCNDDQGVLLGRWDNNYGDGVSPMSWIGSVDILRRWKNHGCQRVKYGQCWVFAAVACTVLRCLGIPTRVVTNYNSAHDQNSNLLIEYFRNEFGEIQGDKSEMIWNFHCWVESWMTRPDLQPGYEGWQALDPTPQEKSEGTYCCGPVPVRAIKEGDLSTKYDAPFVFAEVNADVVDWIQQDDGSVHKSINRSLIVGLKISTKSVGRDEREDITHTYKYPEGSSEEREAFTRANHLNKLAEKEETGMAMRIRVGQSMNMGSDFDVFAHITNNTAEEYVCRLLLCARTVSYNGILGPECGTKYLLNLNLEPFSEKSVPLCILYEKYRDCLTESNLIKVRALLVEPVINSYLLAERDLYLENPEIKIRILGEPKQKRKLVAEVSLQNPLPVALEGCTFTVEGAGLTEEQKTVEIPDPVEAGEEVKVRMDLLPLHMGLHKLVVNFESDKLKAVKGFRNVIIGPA
Procedure: as §1, §2

[4] = tested on: whole human blood; test: Thromboelastometry (ROTEM) in whole human blood with t-PA; format: cell-based
Procedure: Clotting time (CT), clot formation time (CFT), maximum clot firmness (MCF) and lysis index at 60 min (LI60) were obtained using fresh whole blood in the ROTEM® delta device according to the manufacturer's instructions.

[5] = isopeptidase assay, Table 3, read-out: IC50 [nM] FXIII

Row | Compound | recovery at 2 h [1] | IC50 [2, 5] | Selectivity ([3]; isopeptidase assay, Table 3) | IC50 ([3]; isopeptidase assay, Table 3, read-out: IC50 [nM] TG2) | IC50 ([2]; Table 4, read-out: FXIII IC50) | Selectivity ([3]; Table 4) | IC50 ([3]; Table 4, read-out: TG2 IC50) | increase in clot lysis at 60 minutes compared to control (LI60c) [4] | half-life [1]
1 | COC(=O)/C=C/CC[C@H](NC(=O)c1cc(Cl)c(Cl)cc1C(=O)O)C(=O)N[C@H](C(=O)N1C[C@H]2[C@@H]([C@H]1C(=O)N[C@H](C(=O)N[C@H](C(N)=O)C1CCCCC1)C1CCCCC1)C2(C)C)C(C)(C)C [Compound 29] ({Benzoyl(2-COOH-4,5-Cl2)}-[X1][Tle][Pro(3R,4S-CMe2)][Chg][Chg]-NH2) | > 75% | 24 nM | 1.3 | 32 nM | – | – | – | – | –
2 | COC(=O)/C=C/CC[C@H](NC(=O)c1cc(C(=O)O)cc([N+](=O)[O-])c1)C(=O)N[C@H](C(=O)N1CC(=O)C[C@H]1C(=O)N[C@@H](CC(C)C)C(=O)N1CCC[C@@]1(C)C(=O)NC(C)COc1c(C)cccc1C)C(C)(C)C (some centres unmarked) [Compound 30] ({Benzoyl(3-COOH,5-NO2)}-[X1][Tle][Pro(4-oxo)]L[αMeP]-X6) | > 75% | 15 nM | 1.1 | – | – | – | – | – | –
3 | CCOC(=O)/C=C/CC[C@H](NC(=O)c1cc(Cl)c(Cl)cc1C(=O)O)C(=O)N[C@H](C(=O)N1CCC[C@H]1C(=O)N[C@@H](CC(C)C)C(=O)N[C@H](C(N)=O)C1CCCCC1)C(C)C [Compound 38] ({Benzoyl(2-COOH-4,5-Cl2)}-[Nle(5E-ene,6-CO2Et)]VPL[Chg]-NH2) | > 75% | – | – | – | 47 nM | 16.17 | 760 nM | – | –
4 | CCOC(=O)/C=C/CC[C@H](NC(=O)c1cc(C(=O)O)cc([N+](=O)[O-])c1)C(=O)N[C@H](C(=O)N1CC(=O)C[C@H]1C(=O)N[C@H](C(=O)NCCC(C)C)C1CCCCC1)C(C)(C)C [Compound 40] ({Benzoyl(3-COOH,5-NO2)}-[Nle(5E-ene,6-CO2Et)][Tle][Pro(4-oxo)][Chg]-NHIsopentyl) | > 75% | – | – | – | 81 nM | 10.47 | 848 nM | – | –
5 | C=C1C[C@@H](C(=O)N[C@@H](CC(C)C)C(=O)N2CCC[C@H]2C(=O)O)N(C(=O)[C@@H](NC(=O)[C@H](CC/C=C/C(=O)OC)NC(=O)c2cc(C(=O)O)cc([N+](=O)[O-])c2)C(C)(C)C)C1 [Compound 43] ({Benzoyl(3-COOH,5-NO2)}-[X1][Tle][Pro(4-methylene)]LP-OH) | > 75% | – | – | – | 158 nM | 5.42 | 856 nM | 14% | –
6 | COC(=O)/C=C/CC[C@H](NC(=O)[C@@H]1CC(=O)CN1)C(=O)N[C@@H](CC1CC1)C(=O)N1CCOC[C@H]1C(=O)N[C@@H](CC(C)C)C(=O)N1CCC[C@H]1C(=O)O [Compound 44] (H-[Pro(4-oxo)][X1][Ala(cPr)][Morpholine(3S-CO)]LP-OH) | > 75% | – | – | – | 141 nM | 5.66 | 798 nM | 11% | –
7 | CCCC[C@H](NC(=O)[C@H](CC/C=C/C(=O)OC)NC(=O)[C@@H](CC(=O)O)NC(C)=O)C(=O)N[C@@H](CCCC)C(=O)N[C@@H](CC(C)C)C(=O)N1CCC[C@H]1C(=O)N[C@@H](Cc1c[nH]c2ccccc12)C(=O)O [Ref. 13, reference compound] (Ac-[dD][X1][Nle][Nle]LPW-OH) | – | – | – | – | 465 nM | 6.02 | 2800 nM | – | < 15 min
8 | CCCC[C@H](NC(=O)[C@H](CC/C=C/C(=O)OC)NC(=O)[C@@H](CC(=O)O)NC(C)=O)C(=O)N[C@@H](CCCC)C(=O)N[C@@H](CC(C)C)C(=O)N1CCC[C@H]1C(=O)O [Ref. 14, reference compound] (Ac-[dD][X1][Nle][Nle]LP-OH) | – | – | – | – | > 10 nM | – | 2150 nM | – | < 15 min
9 | CCCC[C@H](NC(=O)[C@H](CC/C=C/C(=O)OC)NC(=O)[C@@H]1CC(=O)CN1)C(=O)N[C@H](C(=O)N[C@@H](CC(C)C)C(=O)N1CCC[C@H]1C(=O)N[C@@H](Cc1c[nH]c2ccccc12)C(=O)O)C(C)CC (some centres unmarked) [Ref. 15, reference compound] (H-[Pro(4-oxo)][X1][Nle][Ile(3ξ)]LPW-OH) | – | – | – | – | 226 nM | 0.52 | 117 nM | – | < 15 min
10 | CCCC[C@H](NC(=O)[C@H](CC/C=C/C(=O)OC)NC(=O)[C@@H]1CC(=O)CN1)C(=O)N[C@H](C(=O)N[C@@H](CC(C)C)C(=O)N1CCC[C@H]1C(=O)O)C(C)CC (some centres unmarked) [Ref. 16, reference compound] (H-[Pro(4-oxo)][X1][Nle][Ile(3ξ)]LP-OH) | – | – | – | – | > 10 nM | – | 196 nM | – | < 15 min
11 | COC(=O)/C=C/CC[C@H](NC(=O)[C@H](CC(N)=O)NC(C)=O)C(=O)N[C@@H](CCC(=O)O)C(=O)N[C@@H](CCC(N)=O)C(=O)N[C@H](C(=O)N[C@@H](CO)C(=O)N1CCC[C@H]1C(=O)N[C@@H](CC(C)C)C(=O)N[C@H](C(=O)N[C@@H](CC(C)C)C(=O)N[C@@H](CC(C)C)C(=O)N[C@@H](CCCCN)C(=O)O)C(C)O)C(C)C (some centres unmarked) [Ref. 17, reference compound] (Ac-N[X1]EQVSPL[Thr(3ξ)]LLK-OH) | – | – | – | – | 420 nM | 0.54 | 227 nM | – | < 15 min
12 | COC(=O)/C=C/CC[C@H](NC(=O)[C@H](CC(N)=O)NC(C)=O)C(=O)N[C@@H](CCC(=O)O)C(=O)N[C@@H](CCC(N)=O)C(=O)N[C@H](C(=O)N[C@@H](CO)C(=O)N1CCC[C@H]1C(=O)N[C@@H](CC(C)C)C(=O)N[C@H](C(=O)N[C@@H](CC(C)C)C(=O)N[C@@H](CC(C)C)C(=O)O)C(C)O)C(C)C (some centres unmarked) [Ref. 18, reference compound] (Ac-N[X1]EQVSPL[Thr(3ξ)]LL-OH) | – | – | – | – | 995 nM | 0.34 | 341 nM | – | < 15 min
13 | CCCC[C@H](NC(=O)[C@H](CC/C=C/C(=O)OC)NC(=O)[C@@H](CC(=O)O)NC(C)=O)C(=O)N[C@@H](CCCC)C(=O)N[C@@H](CC(C)C)C(=O)N1CCC[C@H]1C(=O)N[C@@H](Cc1c[nH]c2ccccc12)C(=O)N1CCC[C@H]1C(=O)O [Ref. 22, reference compound] (Ac-[dD][X1][Nle][Nle]LPWP-OH) | – | – | – | – | 110 nM | 26.54 | 2920 nM | – | < 15 min
14 | CCCC[C@H](NC(=O)[C@H](CC/C=C/C(=O)OC)NC(=O)[C@@H]1CC(=O)CN1)C(=O)N[C@H](C(=O)N[C@@H](CC(C)C)C(=O)N1CCC[C@H]1C(=O)N[C@@H](Cc1c[nH]c2ccccc12)C(=O)N1CCC[C@H]1C(=O)O)C(C)CC (some centres unmarked) [Ref. 23, reference compound] (H-[Pro(4-oxo)][X1][Nle][Ile(3ξ)]LPWP-OH) | – | – | – | – | 56 nM | 1.82 | 102 nM | – | < 15 min
15 | C=CCOC(=O)NCCCC[C@H](NC(=O)[C@H](CC(C)C)NC(=O)[C@H](CC(C)C)NC(=O)[C@@H](NC(=O)[C@H](CC(C)C)NC(=O)[C@@H]1CCCN1C(=O)[C@H](CO)NC(=O)C(NC(=O)[C@H](CCC(N)=O)NC(=O)[C@H](CCC(=O)O)NC(=O)[C@H](CC/C=C/C(=O)OC)NC(=O)[C@H](CC(N)=O)NC(C)=O)C(C)C)C(C)O)C(=O)O (some centres unmarked) [Ref. 24, reference compound] (Ac-N[X1]EQ[ξV]SPL[Thr(3ξ)]LLK(Alloc)-OH) | – | – | – | – | 306 nM | 0.55 | 169 nM | – | < 15 min
